Where two headings read alike, the source gives them in different places.
Key:
[1] = Enhancement of virus replication, test not described; conditions: no test details given
[2] = system: VSVΔ51 in 786-0 cells; type: cell-based, human
[3] = system: VSVΔ51 in OVCAR8 cells; type: cell-based, human; conditions: 24 hours
[4] = system: VSVΔ51 in WI38 cells; type: cell-based, human; conditions: 24 hours
[5] = system: VSVΔ51 in CT26 cells; type: cell-based, mouse; conditions: 24 hours
[6] = system: VSVΔ51 in GM38 cells; type: cell-based, human; conditions: 24 hours
[7] = system: VSVΔ51 in 786-0 cells; type: cell-based, human; conditions: 24 hours
[8] = system: VSV in 786-0 cells; type: cell-based, human; conditions: 24 hours
[9] = system: MG1 in 786-0 cells; type: cell-based, human; conditions: 24 hours
[10] = system: JX594-GFP in 786-0 cells; type: cell-based, human; conditions: 48 hours
[11] = system: Reovirus in 786-0 cells; type: cell-based, human; conditions: 48 hours
[12] = system: HSV-1 in 786-0 cells; type: cell-based, human; conditions: 48 hours
[13] = system: VSVΔ51 in 786-0 tumors; type: cell-based, SCID mice
[14] = system: VSVΔ51 in MiaPaca tumors; type: cell-based, SCID mice
[15] = system: VSVΔ51 in MiaPaca tumors; type: in vivo, SCID mice; conditions: 72 hours
[16] = system: VSVΔ51 in OVCAR8 tumors; set-up: species or system SCID mice; conditions: mouse, in vivo, iv
[17] = system: VSVΔ51 in 786-0 tumors; set-up: species or system SCID mice; conditions: mouse, in vivo, iv
[18] = system: human H1N1 Influenza A strain FM/1/47 in MRC5 cells; assay: Influenza A titers in MRC5 cells treated with FGF2, nucleoprotein ELISA; type: cell-based; conditions: FGF2 100 ng/ml, serum free media; MOI 0.05 or 0.1; FIG. 21
Experimental: MRC5 cells were treated with 100 ng/ml FGF2, 100 ng/ml leptin, or mock treated, in serum free media.
48 hours later, cells were infected with the human H1N1 Influenza A strain FM/1/47 at MOI 0.05 or 0.1, as indicated, in the presence of 1 μg/ml TPCK trypsin. 48 h (MOI 0.1) or 72 h (MOI 0.05) later, supernatants from triplicate wells were collected and pooled. Viral titers were obtained by ELISA for Influenza A nucleoprotein. The resulting titers are illustrated in FIG. 21.

[19] = system: Measles virus (Edmonston strain) in WI38 cells; assay: Measles virus titers in WI38 cells treated with FGF2, plaque assay; type: cell-based, human; conditions: FGF2 100 ng/ml, serum free media; MOI 0.1; 48 hours; FIG. 22
Experimental: WI38 cells were treated with 100 ng/ml FGF2, or mock treated, in serum free media.
24 hours later, cells were infected with Measles virus (Edmonston strain) at an MOI 0.1. 48 hours later, supernatants were collected and virus titration was performed by plaque assay in Vero cells. The resulting titers are illustrated in FIG. 22.

[20] = system: VSVΔ51 in MC38 cells; type: cell-based, mouse; conditions: 48 hours
[21] = system: JX594-GFP in 786-0 cells; type: cell-based, human

SEQ ID NO: 14: human recombinant FGF2 protein (Accession: # P09038)
virus replication [1]: enhance virus replication

FGF2: recombinant human FGF2 protein; amino acid sequence shown in SEQ ID NO: 9
rate of production of VSVΔ51 compared to untreated 786-0 cells [2]: increased
FGF2 concentration at which enhanced VSVΔ51 replication is seen ([2]; 24 hours): ≤ 20 ng/mL
total PFU/mL, fold higher than untreated or FGF1-treated cells ([2]; 24 hours): at least 15 fold
virus replication vs untreated cells ([2]; 24 hours): enhanced virus replication
pfu/ml in cell associated supernatants ([2]; after 6 hours): about 1E2 pfu/ml
plaque forming units/mL in cell associated supernatants ([2]; after 48 hours): about 5E6 pfu/mL
total PFU/mL, fold higher than untreated or FGF1-treated cells [3]: at least 15 fold
total PFU/mL, fold higher than untreated or FGF1-treated cells [4]: at least 15 fold
total PFU/mL, fold higher than untreated or FGF1-treated cells [5]: at least 15 fold
effect on virus replication [6]: did not significantly affect virus replication
virus titers, fold higher compared to control (untreated and FGF1-treated) cells [7]: 10 fold
virus replication vs untreated cells [8]: enhanced virus replication
virus replication vs untreated cells [9]: enhanced virus replication
virus replication vs untreated cells [10]: enhanced virus replication
virus replication vs untreated cells [11]: enhanced virus replication
virus replication vs untreated cells [12]: enhanced virus replication
ex-vivo virus infection and GFP expression, fluorescent pictures [13]: increased ex-vivo virus infection and transgene protein expression (GFP)
ex vivo virus production (virus titers) ([13]; 48 hours): enhancement of ex vivo virus production
ex-vivo virus infection and GFP expression, fluorescent pictures [14]: increased ex-vivo virus infection and transgene protein expression (GFP)
ex vivo virus production (virus titers) ([14]; 48 hours): enhancement of ex vivo virus production
VSVΔ51 titers in tumors [15]: enhanced virus replication
VSVΔ51 titers in tumors [16]: enhanced virus replication
VSVΔ51 titers in tumors [17]: enhanced virus replication
influenza viral replication (viral titers) [18]: Enhanced Viral Replication
measles viral replication (virus titers) [19]: Enhanced Viral Replication
Virus titre [20]: 7.73e6 ± 9.8e5 pfu/mL

B1: mFGF2: recombinant murine FGF2 protein; amino acid sequence shown in SEQ ID NO: 11 (protein)
chain: MAASGITSLPALPEDGGAAFPPGHFKDPKRLYCKNGGFFLRIHPDGRVDGVREKSDPHVKLQLQAEERGVVSIKGVCANRYLAMKEDGRLLASKCVTEECFFFERLESNNYNTYRSRKYSSWYVALKRTGQYKLGSKTGPGQKAILFLPMSAKS
modifications: recombinant mouse protein
Average of pixel intensity [21]: 24.90
Relative pixel intensity increase [21]: 4.37
Average of pixel intensity ([21]; after 48 hours): 24.90
Relative pixel intensity increase ([21]; after 48 hours): 4.37
Virus titre [20]: 8.20e6 ± 1.1e6 pfu/mL

From US10604741B2, “Compositions and methods for enhancing virus replication” (TURNSTONE LIMITED PARTNERSHIP, priority 2013, dated 2020)
